Source: the NIST ThermoML archive (doi:10.1021/je0601208)

How the values were obtained:
[1] = xn = mol fraction of the nth substance listed
[2] = refractive index (Na D-line) (dimensionless); xn = mol fraction of the nth substance listed; settings: 100.5 kPa, Liquid, Standard Abbe refractometry

CCCCCCCC(=O)OCC [ethyl octanoate] + CCO
Settings	refractive index, 288.15 K	refractive index, 298.15 K	refractive index, 308.15 K	refractive index, 318.15 K	surface tension liquid-gas, 288.15 K [mN/m]	surface tension liquid-gas, 298.15 K [mN/m]	surface tension liquid-gas, 308.15 K [mN/m]	surface tension liquid-gas, 318.15 K [mN/m]
[1], x1 = 0.05	–	–	–	–	23.6	22.9	22	21.1
[1], x1 = 0.1	–	–	–	–	24	23.3	22.5	21.6
[1], x1 = 0.15	–	–	–	–	24.4	23.7	22.8	21.9
[1], x1 = 0.2	–	–	–	–	24.8	24	23.2	22.3
[1], x1 = 0.25	–	–	–	–	25.1	24.3	23.4	22.6
[1], x1 = 0.3	–	–	–	–	25.3	24.5	23.7	22.8
[1], x1 = 0.35	–	–	–	–	25.5	24.8	23.9	23
[1], x1 = 0.4	–	–	–	–	25.7	24.9	24.1	23.2
[1], x1 = 0.45	–	–	–	–	25.9	25.1	24.2	23.4
[1], x1 = 0.5	–	–	–	–	26.1	25.3	24.4	23.5
[1], x1 = 0.55	–	–	–	–	26.2	25.4	24.5	23.7
[1], x1 = 0.6	–	–	–	–	26.3	25.6	24.7	23.8
[1], x1 = 0.65	–	–	–	–	26.5	25.7	24.8	24
[1], x1 = 0.7	–	–	–	–	26.6	25.8	24.9	24.1
[1], x1 = 0.75	–	–	–	–	26.7	25.9	25	24.2
[1], x1 = 0.8	–	–	–	–	26.8	26	25.1	24.3
[1], x1 = 0.85	–	–	–	–	26.9	26.1	25.2	24.4
[1], x1 = 0.9	–	–	–	–	27	26.2	25.3	24.5
[1], x1 = 0.95	–	–	–	–	27.1	26.3	25.4	24.6
[1], x1 = 1	–	–	–	–	27.2	26.4	25.5	24.7
[2], x1 = 0.05	1.37185	1.36779	1.36356	1.35953	–	–	–	–
[2], x1 = 0.1	1.37876	1.37462	1.37036	1.36625	–	–	–	–
[2], x1 = 0.15	1.38444	1.38028	1.37601	1.37184	–	–	–	–
[2], x1 = 0.2	1.38922	1.38502	1.38074	1.37654	–	–	–	–
[2], x1 = 0.25	1.39327	1.38905	1.38477	1.38054	–	–	–	–
[2], x1 = 0.3	1.39676	1.39252	1.38823	1.38398	–	–	–	–
[2], x1 = 0.35	1.39979	1.39553	1.39125	1.38698	–	–	–	–
[2], x1 = 0.4	1.40245	1.39818	1.39389	1.38961	–	–	–	–
[2], x1 = 0.45	1.40481	1.40053	1.39624	1.39195	–	–	–	–
[2], x1 = 0.5	1.40692	1.40263	1.39835	1.39403	–	–	–	–
[2], x1 = 0.55	1.40882	1.40451	1.40023	1.39591	–	–	–	–
[2], x1 = 0.6	1.41053	1.40621	1.40193	1.3976	–	–	–	–
[2], x1 = 0.65	1.41208	1.40776	1.40348	1.39914	–	–	–	–
[2], x1 = 0.7	1.4135	1.40917	1.40489	1.40054	–	–	–	–
[2], x1 = 0.75	1.4148	1.41047	1.40619	1.40183	–	–	–	–
[2], x1 = 0.8	1.41599	1.41166	1.40739	1.40302	–	–	–	–
[2], x1 = 0.85	1.41709	1.41276	1.4085	1.40412	–	–	–	–
[2], x1 = 0.9	1.4181	1.41378	1.40952	1.40515	–	–	–	–
[2], x1 = 0.95	1.41904	1.41472	1.41047	1.40611	–	–	–	–
[2], x1 = 1	1.41991	1.4156	1.41137	1.40702	–	–	–	–

CCOC(=O)Cc1ccccc1 [ethyl phenylacetate] + CCO
Settings	refractive index, 288.15 K	refractive index, 298.15 K	refractive index, 308.15 K	refractive index, 318.15 K	surface tension liquid-gas, 288.15 K [mN/m]	surface tension liquid-gas, 298.15 K [mN/m]	surface tension liquid-gas, 308.15 K [mN/m]	surface tension liquid-gas, 318.15 K [mN/m]
[1], x1 = 0.05	–	–	–	–	23.9	23.1	22.2	21.2
[1], x1 = 0.1	–	–	–	–	24.6	23.7	22.8	21.8
[1], x1 = 0.15	–	–	–	–	25.2	24.3	23.4	22.4
[1], x1 = 0.2	–	–	–	–	25.9	24.9	23.9	22.9
[1], x1 = 0.25	–	–	–	–	26.5	25.5	24.5	23.5
[1], x1 = 0.3	–	–	–	–	27.2	26.1	25.1	24.1
[1], x1 = 0.35	–	–	–	–	27.8	26.7	25.7	24.7
[1], x1 = 0.4	–	–	–	–	28.4	27.3	26.2	25.4
[1], x1 = 0.45	–	–	–	–	29.1	27.9	26.8	26
[1], x1 = 0.5	–	–	–	–	29.7	28.5	27.4	26.6
[1], x1 = 0.55	–	–	–	–	30.3	29.1	28	27.2
[1], x1 = 0.6	–	–	–	–	31	29.7	28.6	27.8
[1], x1 = 0.65	–	–	–	–	31.6	30.3	29.2	28.4
[1], x1 = 0.7	–	–	–	–	32.2	30.9	29.8	29
[1], x1 = 0.75	–	–	–	–	32.8	31.6	30.4	29.5
[1], x1 = 0.8	–	–	–	–	33.5	32.1	31	30.1
[1], x1 = 0.85	–	–	–	–	34.1	32.8	31.6	30.7
[1], x1 = 0.9	–	–	–	–	34.7	33.4	32.2	31.4
[1], x1 = 0.95	–	–	–	–	35.3	33.9	32.8	32
[1], x1 = 1	–	–	–	–	35.9	34.6	33.5	32.8
[2], x1 = 0.05	1.38109	1.37693	1.37265	1.36852	–	–	–	–
[2], x1 = 0.1	1.39604	1.3918	1.38745	1.38323	–	–	–	–
[2], x1 = 0.15	1.4087	1.40441	1.40003	1.39573	–	–	–	–
[2], x1 = 0.2	1.41969	1.41536	1.41093	1.40653	–	–	–	–
[2], x1 = 0.25	1.42932	1.42491	1.42047	1.41597	–	–	–	–
[2], x1 = 0.3	1.4379	1.43347	1.42899	1.42447	–	–	–	–
[2], x1 = 0.35	1.44556	1.44111	1.43661	1.43203	–	–	–	–
[2], x1 = 0.4	1.45242	1.44792	1.44342	1.43878	–	–	–	–
[2], x1 = 0.45	1.45856	1.45402	1.44951	1.44484	–	–	–	–
[2], x1 = 0.5	1.46406	1.45953	1.455	1.4503	–	–	–	–
[2], x1 = 0.55	1.46909	1.46454	1.45999	1.45524	–	–	–	–
[2], x1 = 0.6	1.47365	1.46908	1.46451	1.45975	–	–	–	–
[2], x1 = 0.65	1.47785	1.47324	1.46869	1.46391	–	–	–	–
[2], x1 = 0.7	1.48174	1.47713	1.47255	1.46775	–	–	–	–
[2], x1 = 0.75	1.48536	1.48072	1.47613	1.47132	–	–	–	–
[2], x1 = 0.8	1.48865	1.48403	1.47943	1.47458	–	–	–	–
[2], x1 = 0.85	1.4917	1.48707	1.48248	1.47763	–	–	–	–
[2], x1 = 0.9	1.49461	1.48996	1.48539	1.48053	–	–	–	–
[2], x1 = 0.95	1.4973	1.49266	1.4881	1.48323	–	–	–	–
[2], x1 = 1	1.49971	1.49513	1.49063	1.48583	–	–	–	–
